According to PMC4279419, “Angiostatic, tumor inflammatory and anti-tumor effects of CXCL4^47–70 and CXCL4L1^47–70 in an EGF-dependent breast cancer model” (Oncotarget, 2014):
Where no end group is shown, it is not given here.

How the values were obtained:
[1] = tested on: bovine aortic endothelial cells (GM7373); assay: GM7373 proliferation assay (cell counting); format: cell-based; details: peptide 0.4 μg/ml, 0.4% FCS, 24 h, cell counts, mean ± s.e.m., n=3; for GM7373 proliferation relative to EGF alone (100%): EGF 10 ng/ml; for GM7373 proliferation relative to FGF2 alone (100%): FGF2 10 ng/ml
Experimental: Cell proliferation assays on GM7373 cells were performed as described. Briefly, subconfluent cultures of GM7373 cells were seeded in 96-well dishes at 65 × 10^3 cells/cm^2. After 16 h, cells were incubated in triplicate in fresh medium containing 0.4% FCS plus FGF1 (30 ng/ml), FGF2 (10 ng/ml), FGF8 (30 ng/ml), EGF (10 ng/ml), VEGF (30 ng/ml), 12-O-tetradecanoyl phorbol 13-acetate (TPA, 10 ng/ml) or 10% FCS in the absence or in the presence of 400 ng/ml of CXCL4^47–70 or CXCL4L1^47–70. After 24 h, cells were trypsinized and counted in a Bürker chamber. Data were expressed as percentages of cell proliferation measured in the presence of the mitogenic stimulus alone.

[2] = tested on: human dermal lymphatic microvascular endothelial cells (HLEC); assay: HLEC MTT proliferation assay; format: cell-based; details: control PI=1, 3 to 4 days, MTT, mean ± s.e.m., n=4
Experimental: First, HMVEC and HLEC were seeded at 5 × 10^3 cells/well in EBM-2 + 1% FCS in a 96-well plate, whereas MDA-MB-231 were starved of growth factors overnight by replacing their growth medium with DMEM (serum-free) prior to seeding the tumor cells at 15 × 10^2 cells/well in DMEM + 1% FCS. As for the rest of the assay, the same protocol applies to all cells. Once adherent, cells were incubated with different concentrations of the peptides CXCL4^47–70 and CXCL4L1^47–70 as single stimuli or in combination with recombinant human EGF (3 ng/ml; R&D Systems, Minneapolis, MN) at 37°C/5% CO2. All conditions were tested in triplicate or quadruplicate. After 3 to 4 days, stimulation medium was removed and a sterile MTT solution was added [0.04 g/100 ml thiazolyl blue (Sigma-Aldrich, St. Louis, MO) in 20% PBS/80% RPMI without phenol red (Lonza)] for 3 to 4 hours. The formed formasan crystals were dissolved by replacing the MTT solution with acidic propanol (0.04 M HCl, 0.1% (v/v) Nondet P-40 in absolute isopropanol) and shaking the plate, shielded from light, for 10 minutes. Optical density (OD) was determined at 570 nm and 630 nm. The obtained ODs were processed to proliferation indexes (PI), expressed relative to appropriate buffer controls, i.e. ΔOD570–630X over ΔOD570–630CO.

[3] = tested on: MDA-MB-231 breast tumors in SCID mice; assay: MDA-MB-231 tumor growth in SCID mice; format: in vivo; details: 2.5 μg intratumoral 3×/week from day 3, mean ± s.e.m., n=10; for tumor volume (external), day 11 / mean tumor volume (external), day 25: calipers; for tumor volume (external), day 11: vehicle 176 ± 56, p<0.001 (CXCL4^47–70), p=0.007 (CXCL4L1^47–70); for mean tumor volume (external), day 25: vehicle 1116 ± 149, p=0.121 (CXCL4L1^47–70); for mean tumor volume (external), day 25 / resected tumor mass, day 27 or 28: p=0.002 (CXCL4^47–70); for resected tumor volume, day 27 or 28: vehicle 845 ± 177, p=0.001 (CXCL4^47–70), p=0.256 (CXCL4L1^47–70); for resected tumor mass, day 27 or 28: vehicle 1464 ± 277, p=0.091 (CXCL4L1^47–70)
Experimental: SCID mice were bred in specific-pathogen-free conditions in the Experimental Animal Breeding Facility of the University of Leuven (KU Leuven) and fed sterilized food and water. All animal experiments were conducted in agreement with the Ethical Committee for Animal Care and Use of the KU Leuven and executed under license number LA1210243. 7- to 10-week-old SCID mice were used throughout the experiments. MDA-MB-231 cells in log growth phase (6 × 10^6 cells resuspended in 200 μl of PBS) were injected subcutaneously (s.c.) on day 0 in the right dorsal flank. Animals were treated by intratumoral injection with control, 2.5 μg synthetic human CXCL4^47–70 peptide or synthetic human CXCL4L1^47–70 peptide three times a week starting from day 3. The external tumor volume was measured with calipers thrice a week and calculated using the formula (4πab2)/3 in which a and b are the largest and smallest radius, respectively. On day 27 or 28, mice were sacrificed and tumors were resected. The exact tumor volume of the resected tumor, based on three measured radii (a, b and c), was calculated by the formula (4πabc)/3. A portion of the tumors was stored at −70°C for generation of mRNA extracts and another part was processed for flow cytometry.

CXCR3A = assay: Calcium signaling in CXCR3A-transfectants; format: cell-based; details: CHO/CXCR3A, one representative experiment out of three; for calcium signal via CXCR3A: 2 μg/ml, fura 2, spectrofluorometer; for inhibition of CXCL10-induced calcium signaling (desensitization): peptide 2 μg/ml, CXCL10 5 ng/ml added 100 s later, fura 2
Excerpt: We further tried to reveal the mode of action of CXCL4^47–70 and CXCL4L1^47–70. First, we excluded that either peptide still binds/activates one of the CXCR3 isoforms, the receptors for intact CXCL4 and CXCL4L1. […]
inhibit signaling by intact CXCL10. To study interaction of CXCL447–70 and CXCL4L147–70 with CXCR3A, CHO cells stably transfected with CXCR3A were loaded with the fluorescent dye fura 2 (Struyf et al. J. Immunol. 2009, 182:666). Changes in the intracellular Ca2+ concentrations ([Ca2+]i) in response to CXCL447–70 or CXCL4L147–70 treatment were monitored using a spectrofluorometer. The line in the spectra indicates the fluorescence intensity ratio (i.e. the fluorescence intensity measured after excitation at 340 nm divided by the fluorescence intensity measured after excitation at 380 nm). The results shown (one representative experiment out of three) illustrate a desensitization experiment, in which CHO/CXCR3A cells were stimulated first with a peptide (2 µg/ml) and 100 s later with intact CXCL10 […]
peptides induced a rise in [Ca2+]i. When the cells were stimulated with 5 ng/ml intact CXCL10 100 s after peptide treatment, the response […]
interact with CXCR3A. Arrows indicate the time of addition of the stimulus.
(also on this page, place not known: www.impactjournals.com/oncotarget/ Oncotarget, Supplementary Materials 2014 CXCL4 47–70 CXCL4L1 47–70 CXCL4 47–70 CXCL4L1 47–70 CXCL4 47–70) […]

[4] = peptide 0.3 μg/ml, p=0.030 (CXCL4^47–70), p=0.312 (CXCL4L1^47–70)

Row | Substance | GM7373 proliferation relative to EGF alone (100%) [1] [%] | GM7373 proliferation relative to FGF2 alone (100%) [1] [%] | Proliferation index (PI), baseline [2, 4] | Proliferation index (PI), baseline ([2]; peptide 1 μg/ml, p=0.030) | Proliferation index (PI), baseline ([2]; peptide 3 μg/ml, p=0.030) | tumor volume (external), day 11 [3] [mm^3] | mean tumor volume (external), day 25 [3] [mm^3] | resected tumor volume, day 27 or 28 [3] [mm^3] | resected tumor mass, day 27 or 28 [3] [mg] | calcium signal via CXCR3A (CXCR3A) | calcium signal via CXCR3A (CXCR3A; listed as CXCL4L147–70) | inhibition of CXCL10-induced calcium signaling (desensitization) (CXCR3A) | inhibition of CXCL10-induced calcium signaling (desensitization) (CXCR3A; listed as CXCL4L147–70) | calcium signal via CXCR3A (CXCR3A; listed as CXCL447–70) | inhibition of CXCL10-induced calcium signaling (desensitization) (CXCR3A; listed as CXCL447–70)
1 | CXCL4L1^47–70: synthetic human carboxy-terminal peptide restricted to the last 24 amino acids of CXCL4L1, Fmoc chemistry | 49 ± 1 | 47 ± 4 | 0.90 ± 0.05 | 0.82 ± 0.05 | 0.66 ± 0.04 | 61 ± 23 | 719 ± 153 | 647 ± 161 | 953 ± 208 | Nor could we detect any calcium signal | do not induce calcium signaling via CXCR3A | neither peptide (2 μg/ml) was capable of inhibiting calcium signaling | equal to the signal obtained after buffer stimulation |  | 
2 | CXCL4^47–70: synthetic human carboxy-terminal peptide restricted to the last 24 amino acids of CXCL4, Fmoc chemistry (NGRKICLDLQAPLYKKIIKKLLES; not fully specified (N-terminus)) | 74 ± 3 | 28 ± 10 | 0.70 ± 0.06 | 0.69 ± 0.06 | 0.37 ± 0.04 | 24 ± 6 | 438 ± 97 | 308 ± 61 | 523 ± 108 | Nor could we detect any calcium signal |  | neither peptide (2 μg/ml) was capable of inhibiting calcium signaling |  | do not induce calcium signaling via CXCR3A | equal to the signal obtained after buffer stimulation
